According to patent US9000029B2, “Proline sulfonamide derivatives as orexin receptor antagonists” (Actelion Pharmaceuticals Ltd., priority 2010, dated 2015):

Key:
Assay type in all cases: in vivo, rat
Wistar Rats [1] = assay: Sedative effects: EEG, EMG and behavioural indices of alertness recorded by radiotelemetry; conditions: 100 mg/kg po; effects analyzed over 6 hours; compared to vehicle controls
Experimental: II. Biological Assays 1) Sedative Effects: EEG, EMG and Behavioural Indices of Alertness Recorded by Radiotelemetry In Vivo in Wistar Rats.
Electroencephalography (EEG) and Electromyography (EMG) signals were measured by telemetry using TL11M2-F20-EET miniature radiotelemetric implants (Data Science Int.) with two pairs of differential leads.
Surgical implantation was performed under general anesthesia with Ketamin/Xylazin, for cranial placement of one differential pair of EEG electrodes and one pair of EMG leads inserted in either side of the muscles of the neck. After surgery, rats recovered in a thermoregulated chamber and received analgesic treatment with subcutaneous buprenorphine twice a day for 2 d. They were then housed individually and allowed to recover for a minimum of 2 weeks. Thereafter, rats—in their home cage—were placed in a ventilated sound-attenuating box, on a 12-h light/12-h dark cycle, for acclimatization before continuous EEG/EMG recordings started. The telemetric technology that we used in this study allows accurate and stress-free acquisition of biosignals in rats placed in their familiar home cage environment, with no recording leads restricting their movements. Variables analyzed included four different stages of vigilance and sleep, spontaneous activity in the home cage and body temperature. Sleep and wake stages were evaluated using a rodent scoring software (Somnologica Science) directly processing electrical biosignals on 10 s contiguous epochs. The scoring is based on frequency estimation for EEG and amplitude discrimination for EMG and locomotor activity. Using these measurements, the software determines the probability that all components within each epoch best represent active waking (AW), quiet waking (QW), non-REM-sleep (NREM) or REM-sleep (REM). The percentage of total time spent in AW, QW, NREM- and REM-sleep was calculated per 12 h light or dark period. The latency to the onset of the first significant NREM- and REM-sleep episodes and the frequency and duration of those episodes were also calculated. AW, QW, NREM- and REM-sleep, home cage activity and body temperature were measured at baseline for at least one total circadian cycle (12 h-night, 12 h-day) before a test compound was administered. […] All variables were subsequently recorded for 12 h following administration of the orexin receptor antagonist.
The compound of Example 26 has been tested in this assay (oral dosage: 100 mg/kg po; effects analyzed over 6 hours): Results are: −26% on active wake, −51% on home cage activity, +28% on NREM sleep, +69% on REM sleep; when compared to vehicle controls.

Sprague Dawley rats = assay: Morphine-induced locomotor sensitization; conditions: 100 mg/kg orally two hours before morphine 10 mg/kg i.p.
Source text: 2) Effects on Morphine-Induced Locomotor Sensitization
Repeated administration of psychostimulants or opiates across various species including rodents causes the development of “reverse tolerance” known as sensitization. The term sensitization refers to an increase in a response (here locomotion) after the repeated occurrence of the stimulus (drug administration) that promoted the aforementioned response. The increased sensitivity to the locomotor stimulating effect of such drugs (behavioural sensitization) is believed to be relevant to the psychopathology, neurotoxicity, addiction and to the craving that develop in humans abusing psychostimulants or opiates [Vanderschuren L J M J et al., in Self D W, Staley J K (eds.) “Behavioral Neuroscience of Drug Addiction”, Current Topics in Behavioral Neurosciences 3 (2009), 179-195].
Sensitization to the locomotor effects of drugs of abuse is believed to reflect sensitization to the rewarding effects of these agents. For instance, previous drug experience has been reported to increase the probability that animals will self-administer the drug later on. […]
16 male Sprague Dawley rats were injected with morphine (10 mg/kg i.p.) and placed immediately afterwards in an open field arena for 45 min. Total distance moved (in cm) was recorded via video-tracking. […]

Wistar Rats [2] = assay: Social stress-induced hyperthermia and tachycardia; conditions: 100 mg/kg orally two hours before one hour social interaction stress
Source text: 3) Effects on Social Stress-Induced Hyperthermia and Tachycardia
Exposure to both physiological and psychological stress in mammals leads to an elevation of core body temperature and heart rate referred to as stress-induced hyperthermia (SIH) and stress-induced tachycardia (SIT).
The SIH/SIT response can be observed in humans equally well as in rodents providing excellent animal to human translational possibilities.
12 male Wistar rats were implanted intraperitoneally with transmitters that allowed the simultaneous recording of body temperature (in degrees Celsius) [FIG. 2 A)] and heart rate (in beats per minute) [FIG. 2 B)] via external receivers. Rats were treated orally with 100 mg/kg of compound of example 26 two hours before exposure to an one hour-lasting social interaction stress. Columns 1 and 2 show the effect on body temperature [FIG. 2 A)], respectively heart rate [FIG. 2 B)], after vehicle (1) or drug (2) treatment without exposure to stress; columns 3 and 4 show the effect with exposure to stress after vehicle (3) or drug (4) treatment.

With COc1ccc(S(=O)(=O)N2CCC[C@H]2C(=O)Nc2cc(C)cc(C)c2)cc1 [Example 26, (S)-1-(4-Methoxy-benzenesulfonyl)-pyrrolidine-2-carboxylic acid (3,5-dimethyl-phenyl)-amide] the “effect on NREM sleep” value (Wistar Rats [1]) was “+28%”, the “effect on REM sleep” value (Wistar Rats [1]) was “+69%” and the “effect on active wake” value (Wistar Rats [1]) was −26%. For the same molecule, the “effect on home cage activity” value (Wistar Rats [1]) was −51%, the “locomotor sensitization in response to the 5th injection of morphine” value (Sprague Dawley rats) was “completely abolished” and the social stress-induced hyperthermia (Wistar Rats [2]) was “significantly attenuated”. The social stress-induced tachycardia (Wistar Rats [2]) was “significantly attenuated”.
